Results reported in patent US9180215B2, “Positron emission tomography imaging method” (PURDUE RESEARCH FOUNDATION, priority 2007, dated 2015).

Molecular target: T1, folate receptors on KB cells (Homo sapiens, UniProt P15328)
T1 construct: endogenous in cells; host or cells: KB cells
Test: Competitive binding assay using KB cells (displacement of 3H-folic acid)
Conditions: competitive binding at folate receptors on KB cells, 10 nM 3H-folic acid, 37° C., 1 h
Description: Competitive binding assay using KB cells. Relative binding affinity of the folate-fluoro-phenyl conjugate was evaluated according to the standard literature protocol by Westerhof et. al. (Mol Pharmacol, 1995, 48, 459-471) and C. P. Leamon et. al. (Bioconjugate Chem., 2006, 17 (5), 1226-1232) with minor modification.
Then cells were rinsed three times with 250 μL of PBS (phosphate saline buffer) and one time with trichloro-acetic acid. 1% sodium dodecylsulfate (250 μL) in PBS were added to each well and after 10 min cell lysates were transferred to individual vials containing 3 mL of scintillation cocktail and radioactivity was counted.

T1 sequence (P15328 25-234): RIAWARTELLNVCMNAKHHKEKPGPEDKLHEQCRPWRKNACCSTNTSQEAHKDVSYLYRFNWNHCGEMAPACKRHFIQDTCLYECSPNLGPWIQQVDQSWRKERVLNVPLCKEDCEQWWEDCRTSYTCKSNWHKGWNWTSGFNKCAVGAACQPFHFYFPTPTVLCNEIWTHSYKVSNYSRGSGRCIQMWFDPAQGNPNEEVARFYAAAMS

Kd: 23.8 nM
Structure (SMILES): Nc1nc2ncc(CNc3ccc(C(=O)N[C@@H](CCC(=O)NCCNC(=O)CCOCCOCCOCCOCCOCCOCCNC(=O)c4ccc(F)cc4)C(=O)O)cc3)nc2c(=O)[nH]1 [compound of FIG. 1]
